Test results reported in ChEMBL document CHEMBL4507310, “Data for DCP probe A-1211212” (2021).

Columns and labels:
[1] = target: Sodium/potassium-transporting ATPase (Sus scrofa) (UniProt P05027+P05024+D2WKD8+D2WKD7+F1ST41); assay: ATPase (Na+/K+) Eurofins-Cerep enzyme and uptake assay; type: protein-complex assay; details: Compound concentration 10.0 uM
[2] = target: TGF-beta receptor type-2 (Homo sapiens) (UniProt P37173); details: Compound concentration 1000.0 nM
[3] = target: MAP kinase-interacting serine/threonine-protein kinase 2 (Homo sapiens) (UniProt Q9HBH9); details: Compound concentration 1000.0 nM
[4] = test system: Phosphatidylinositol 4,5-bisphosphate 3-kinase catalytic subunit alpha isoform (Homo sapiens), P42336 [C420R]; details: Compound concentration 1000.0 nM
Sequence of Phosphatidylinositol 4,5-bisphosphate 3-kinase catalytic subunit alpha isoform (Homo sapiens), P42336 [C420R] (P42336 whole entry C420R, canonical isoform): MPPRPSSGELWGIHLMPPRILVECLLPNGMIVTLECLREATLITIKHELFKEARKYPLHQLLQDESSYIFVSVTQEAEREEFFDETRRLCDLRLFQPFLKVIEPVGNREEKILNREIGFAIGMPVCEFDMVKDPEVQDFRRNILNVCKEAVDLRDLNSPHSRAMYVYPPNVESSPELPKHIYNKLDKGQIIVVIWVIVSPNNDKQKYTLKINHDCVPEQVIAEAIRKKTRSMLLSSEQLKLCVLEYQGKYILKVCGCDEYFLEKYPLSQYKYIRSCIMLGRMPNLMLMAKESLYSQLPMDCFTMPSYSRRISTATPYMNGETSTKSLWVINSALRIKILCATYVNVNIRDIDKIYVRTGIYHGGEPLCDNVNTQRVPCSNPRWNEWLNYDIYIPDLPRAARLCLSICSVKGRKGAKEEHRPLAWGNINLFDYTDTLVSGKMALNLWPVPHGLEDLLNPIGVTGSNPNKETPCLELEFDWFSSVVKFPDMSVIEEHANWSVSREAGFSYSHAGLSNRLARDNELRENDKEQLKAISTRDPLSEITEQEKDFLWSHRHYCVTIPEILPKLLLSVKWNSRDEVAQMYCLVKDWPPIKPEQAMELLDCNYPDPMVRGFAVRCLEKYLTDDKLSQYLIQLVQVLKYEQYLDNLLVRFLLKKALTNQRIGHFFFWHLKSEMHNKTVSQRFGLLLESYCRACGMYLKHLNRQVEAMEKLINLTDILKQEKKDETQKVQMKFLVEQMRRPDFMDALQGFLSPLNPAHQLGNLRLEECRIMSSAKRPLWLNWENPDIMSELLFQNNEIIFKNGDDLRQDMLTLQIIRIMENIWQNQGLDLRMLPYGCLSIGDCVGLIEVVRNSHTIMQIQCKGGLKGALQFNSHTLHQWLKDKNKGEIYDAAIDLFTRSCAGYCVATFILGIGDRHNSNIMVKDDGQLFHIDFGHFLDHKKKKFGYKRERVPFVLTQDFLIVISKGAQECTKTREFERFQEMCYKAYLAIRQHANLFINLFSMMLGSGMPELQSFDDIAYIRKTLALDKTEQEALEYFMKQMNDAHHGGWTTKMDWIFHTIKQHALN

[5] = target: BDNF/NT-3 growth factors receptor (Homo sapiens) (UniProt Q16620); details: Compound concentration 1000.0 nM
Sequence of BDNF/NT-3 growth factors receptor (Homo sapiens) (Q16620 32-822 limits assumed): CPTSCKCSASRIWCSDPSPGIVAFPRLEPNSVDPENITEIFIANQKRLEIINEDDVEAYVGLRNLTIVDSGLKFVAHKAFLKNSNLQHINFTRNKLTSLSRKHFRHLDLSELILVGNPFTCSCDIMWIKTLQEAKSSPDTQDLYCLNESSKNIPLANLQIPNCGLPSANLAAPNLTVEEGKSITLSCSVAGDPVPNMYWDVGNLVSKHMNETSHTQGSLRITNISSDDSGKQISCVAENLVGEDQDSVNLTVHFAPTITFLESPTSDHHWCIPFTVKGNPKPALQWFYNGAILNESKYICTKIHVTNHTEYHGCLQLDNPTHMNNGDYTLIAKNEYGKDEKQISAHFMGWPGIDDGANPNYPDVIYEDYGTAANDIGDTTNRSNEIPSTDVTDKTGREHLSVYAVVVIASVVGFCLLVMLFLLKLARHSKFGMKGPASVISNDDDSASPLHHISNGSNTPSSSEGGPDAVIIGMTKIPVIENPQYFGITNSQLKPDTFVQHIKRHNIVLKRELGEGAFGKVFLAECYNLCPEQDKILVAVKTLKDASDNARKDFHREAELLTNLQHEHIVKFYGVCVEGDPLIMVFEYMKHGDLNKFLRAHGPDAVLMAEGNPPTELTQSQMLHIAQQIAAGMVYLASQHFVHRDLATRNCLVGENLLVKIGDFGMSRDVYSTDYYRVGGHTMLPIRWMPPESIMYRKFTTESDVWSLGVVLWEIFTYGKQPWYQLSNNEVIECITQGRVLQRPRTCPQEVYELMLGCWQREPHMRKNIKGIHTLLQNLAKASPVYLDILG

[6] = target: Serine/threonine-protein kinase 26 (Homo sapiens) (UniProt Q9P289); details: Compound concentration 1000.0 nM
[7] = test system: Hepatocyte growth factor receptor (Homo sapiens), P08581 [Y1235D]; details: Compound concentration 1000.0 nM
[8] = target: Serine/threonine-protein kinase MRCK gamma (Homo sapiens) (UniProt Q6DT37); details: Compound concentration 1000.0 nM
[9] = target: Macrophage-stimulating protein receptor (Homo sapiens) (UniProt Q04912); details: Compound concentration 1000.0 nM
[10] = target: Casein kinase I isoform delta (Homo sapiens) (UniProt P48730); details: Compound concentration 1000.0 nM
Sequence of Casein kinase I isoform delta (Homo sapiens) (P48730 whole entry, looked up, canonical isoform): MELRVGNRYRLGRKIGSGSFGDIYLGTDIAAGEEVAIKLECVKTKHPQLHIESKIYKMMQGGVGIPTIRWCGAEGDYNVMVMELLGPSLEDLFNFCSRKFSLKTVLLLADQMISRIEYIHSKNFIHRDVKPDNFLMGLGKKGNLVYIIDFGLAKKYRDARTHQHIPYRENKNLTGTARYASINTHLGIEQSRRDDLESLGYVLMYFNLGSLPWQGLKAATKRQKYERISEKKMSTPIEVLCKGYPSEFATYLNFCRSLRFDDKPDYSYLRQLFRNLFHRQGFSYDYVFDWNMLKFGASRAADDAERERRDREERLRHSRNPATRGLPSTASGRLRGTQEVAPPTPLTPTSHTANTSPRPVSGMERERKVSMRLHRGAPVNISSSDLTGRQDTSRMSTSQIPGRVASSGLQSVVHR

[11] = target: Serine/threonine-protein kinase PAK 2 (Homo sapiens) (UniProt Q13177); details: Compound concentration 1000.0 nM
[12] = target: MAP kinase-activated protein kinase 2 (Homo sapiens) (UniProt P49137); details: Compound concentration 1000.0 nM
[13] = target: Receptor-type tyrosine-protein kinase FLT3 (Homo sapiens) (UniProt P36888); details: Compound concentration 1000.0 nM
[14] = target: Homeodomain-interacting protein kinase 3 (Homo sapiens) (UniProt Q9H422); details: Compound concentration 1000.0 nM
[15] = target: Dual specificity protein kinase CLK4 (Homo sapiens) (UniProt Q9HAZ1); details: Compound concentration 1000.0 nM
[16] = test system: Tyrosine-protein kinase ABL1 (Homo sapiens), P00519 [Q252H]; details: Compound concentration 1000.0 nM
[17] = target: Glycogen synthase kinase-3 beta (Homo sapiens) (UniProt P49841); details: Compound concentration 1000.0 nM
[18] = target: Dual specificity mitogen-activated protein kinase kinase 6 (Homo sapiens) (UniProt P52564); details: Compound concentration 1000.0 nM
[19] = target: Tyrosine-protein kinase JAK1 (Homo sapiens) (UniProt P23458); details: Compound concentration 1000.0 nM
[20] = target: Cyclin-dependent kinase 9 (Homo sapiens) (UniProt P50750); details: Compound concentration 1000.0 nM
[21] = target: Serine/threonine-protein kinase Chk1 (Homo sapiens) (UniProt O14757); details: Compound concentration 1000.0 nM
[22] = target: Peroxisome proliferator-activated receptor gamma (Homo sapiens) (UniProt P37231); assay: PPARgamma (h) Eurofins-Cerep binding assay; parameters: ligand concentration 5 nM; details: filed as agonist, Compound concentration 10.0 uM
[23] = target: Melatonin receptor type 1B (Homo sapiens) (UniProt P49286); assay: MT2 (ML1B) (h) Eurofins-Cerep binding assay; parameters: ligand concentration 0.05 nM; details: filed as agonist, Compound concentration 10.0 uM
Sequence of Melatonin receptor type 1B (Homo sapiens) (P49286 whole entry): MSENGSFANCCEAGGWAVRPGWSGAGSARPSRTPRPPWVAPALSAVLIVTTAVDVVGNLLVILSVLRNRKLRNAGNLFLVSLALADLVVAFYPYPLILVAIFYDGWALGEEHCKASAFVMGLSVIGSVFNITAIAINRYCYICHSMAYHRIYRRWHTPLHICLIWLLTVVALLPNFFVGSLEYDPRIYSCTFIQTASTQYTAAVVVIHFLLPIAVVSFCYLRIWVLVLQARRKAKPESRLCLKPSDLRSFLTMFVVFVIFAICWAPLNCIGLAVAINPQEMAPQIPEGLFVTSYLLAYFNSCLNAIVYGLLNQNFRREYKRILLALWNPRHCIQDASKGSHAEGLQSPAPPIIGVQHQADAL

[24] = target: Mitogen-activated protein kinase kinase kinase 3 (Homo sapiens) (UniProt Q99759); details: Compound concentration 1000.0 nM
Sequence of Mitogen-activated protein kinase kinase kinase 3 (Homo sapiens) (Q99759 whole entry): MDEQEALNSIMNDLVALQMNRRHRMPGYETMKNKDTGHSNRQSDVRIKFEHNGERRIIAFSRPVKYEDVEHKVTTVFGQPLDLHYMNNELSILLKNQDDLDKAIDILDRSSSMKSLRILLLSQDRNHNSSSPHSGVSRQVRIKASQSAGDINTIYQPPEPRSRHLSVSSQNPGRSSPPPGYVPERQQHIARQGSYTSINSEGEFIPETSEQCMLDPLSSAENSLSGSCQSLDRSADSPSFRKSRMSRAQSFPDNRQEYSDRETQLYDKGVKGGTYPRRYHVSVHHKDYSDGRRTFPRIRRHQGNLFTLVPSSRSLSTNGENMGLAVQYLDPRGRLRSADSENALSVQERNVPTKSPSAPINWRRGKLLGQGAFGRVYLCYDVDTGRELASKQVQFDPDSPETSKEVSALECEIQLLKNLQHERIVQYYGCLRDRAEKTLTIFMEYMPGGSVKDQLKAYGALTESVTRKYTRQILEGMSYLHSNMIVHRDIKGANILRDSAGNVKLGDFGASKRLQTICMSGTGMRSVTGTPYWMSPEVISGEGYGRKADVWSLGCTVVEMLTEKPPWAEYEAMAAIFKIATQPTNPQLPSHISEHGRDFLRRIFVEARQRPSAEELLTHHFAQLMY

[25] = target: Misshapen-like kinase 1 (Homo sapiens) (UniProt Q8N4C8); details: Compound concentration 1000.0 nM
Sequence of Misshapen-like kinase 1 (Homo sapiens) (Q8N4C8 whole entry, looked up): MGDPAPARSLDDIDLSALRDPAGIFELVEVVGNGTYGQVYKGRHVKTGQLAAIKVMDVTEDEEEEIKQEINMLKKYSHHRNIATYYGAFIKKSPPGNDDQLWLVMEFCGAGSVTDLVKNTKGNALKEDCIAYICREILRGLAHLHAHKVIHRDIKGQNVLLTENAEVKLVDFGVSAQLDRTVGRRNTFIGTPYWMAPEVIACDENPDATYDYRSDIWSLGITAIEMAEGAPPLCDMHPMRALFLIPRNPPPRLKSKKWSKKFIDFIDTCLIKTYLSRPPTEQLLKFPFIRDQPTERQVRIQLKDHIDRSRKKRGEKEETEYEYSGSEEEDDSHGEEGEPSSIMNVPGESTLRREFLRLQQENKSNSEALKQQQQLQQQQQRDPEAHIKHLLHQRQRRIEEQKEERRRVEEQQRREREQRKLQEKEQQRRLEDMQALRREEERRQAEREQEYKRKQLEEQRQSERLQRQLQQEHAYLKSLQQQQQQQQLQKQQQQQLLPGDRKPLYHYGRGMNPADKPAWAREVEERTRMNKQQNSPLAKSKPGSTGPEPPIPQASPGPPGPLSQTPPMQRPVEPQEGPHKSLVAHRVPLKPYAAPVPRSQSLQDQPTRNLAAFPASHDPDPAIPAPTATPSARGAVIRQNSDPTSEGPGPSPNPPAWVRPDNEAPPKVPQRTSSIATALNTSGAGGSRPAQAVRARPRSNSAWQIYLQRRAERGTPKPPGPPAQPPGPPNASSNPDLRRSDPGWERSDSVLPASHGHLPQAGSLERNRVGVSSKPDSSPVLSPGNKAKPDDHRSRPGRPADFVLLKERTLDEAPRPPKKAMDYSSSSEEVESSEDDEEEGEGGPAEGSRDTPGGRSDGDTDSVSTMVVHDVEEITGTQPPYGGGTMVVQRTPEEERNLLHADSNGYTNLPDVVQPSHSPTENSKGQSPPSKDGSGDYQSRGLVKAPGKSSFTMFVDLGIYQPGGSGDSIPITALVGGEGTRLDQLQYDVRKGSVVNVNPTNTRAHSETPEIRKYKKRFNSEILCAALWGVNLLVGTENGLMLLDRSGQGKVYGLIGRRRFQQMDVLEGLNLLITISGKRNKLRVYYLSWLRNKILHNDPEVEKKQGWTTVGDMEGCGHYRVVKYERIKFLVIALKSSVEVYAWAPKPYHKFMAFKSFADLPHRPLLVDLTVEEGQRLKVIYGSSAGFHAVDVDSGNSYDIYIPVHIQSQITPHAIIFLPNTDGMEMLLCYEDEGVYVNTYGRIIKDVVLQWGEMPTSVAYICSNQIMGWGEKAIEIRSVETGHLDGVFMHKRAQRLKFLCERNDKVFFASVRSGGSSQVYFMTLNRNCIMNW

[26] = target: GABA-A receptor; anion channel (Rattus norvegicus) (UniProt O09028+P15431+P18506+P18508+P19969+P20236+P23574+P23576+P28471+P28473+P30191+P62813+P63079+P63138+Q91ZM7+Q9ES14); assay: BZD (central) Eurofins-Cerep binding assay; type: protein-complex assay; parameters: ligand concentration 0.4 nM; details: filed as agonist, Compound concentration 10.0 uM
[27] = target: Rhodopsin kinase GRK1 (Homo sapiens) (UniProt Q15835); details: Compound concentration 1000.0 nM
[28] = target: Myosin light chain kinase, smooth muscle (Homo sapiens) (UniProt Q15746); details: Compound concentration 1000.0 nM
[29] = target: RAC-gamma serine/threonine-protein kinase (Homo sapiens) (UniProt Q9Y243); details: Compound concentration 1000.0 nM
Sequence of RAC-gamma serine/threonine-protein kinase (Homo sapiens) (Q9Y243 whole entry): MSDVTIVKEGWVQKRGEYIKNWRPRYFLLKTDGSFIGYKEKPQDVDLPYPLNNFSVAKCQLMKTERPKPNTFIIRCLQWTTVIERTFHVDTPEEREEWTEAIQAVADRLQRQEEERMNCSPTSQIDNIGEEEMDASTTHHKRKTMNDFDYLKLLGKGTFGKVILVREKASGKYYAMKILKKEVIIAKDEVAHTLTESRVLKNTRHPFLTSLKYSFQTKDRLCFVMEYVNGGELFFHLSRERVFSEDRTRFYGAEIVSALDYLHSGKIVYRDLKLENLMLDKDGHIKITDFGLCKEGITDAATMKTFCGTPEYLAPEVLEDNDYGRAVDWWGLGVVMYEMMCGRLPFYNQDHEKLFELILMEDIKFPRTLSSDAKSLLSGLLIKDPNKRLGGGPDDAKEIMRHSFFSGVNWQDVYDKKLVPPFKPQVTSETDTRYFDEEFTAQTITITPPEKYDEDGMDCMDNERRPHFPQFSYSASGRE

[30] = target: Rhodopsin kinase GRK7 (Homo sapiens) (UniProt Q8WTQ7); details: Compound concentration 1000.0 nM
[31] = target: Tyrosine-protein kinase Yes (Homo sapiens) (UniProt P07947); details: Compound concentration 1000.0 nM
[32] = target: Cyclin-dependent kinase 8 (Homo sapiens) (UniProt P49336); details: Compound concentration 1000.0 nM
[33] = target: Ribosomal protein S6 kinase alpha-2 (Homo sapiens) (UniProt Q15349); details: Compound concentration 1000.0 nM
[34] = target: Mast/stem cell growth factor receptor Kit (Homo sapiens) (UniProt P10721); details: Compound concentration 1000.0 nM
[35] = target: T1, Alpha-2A adrenergic receptor (Homo sapiens) (UniProt P08913); assay: Alpha2A (h) Eurofins-Cerep binding assay; parameters: ligand concentration 1 nM; details: filed as antagonist, Compound concentration 10.0 uM
T1 sequence (whole entry): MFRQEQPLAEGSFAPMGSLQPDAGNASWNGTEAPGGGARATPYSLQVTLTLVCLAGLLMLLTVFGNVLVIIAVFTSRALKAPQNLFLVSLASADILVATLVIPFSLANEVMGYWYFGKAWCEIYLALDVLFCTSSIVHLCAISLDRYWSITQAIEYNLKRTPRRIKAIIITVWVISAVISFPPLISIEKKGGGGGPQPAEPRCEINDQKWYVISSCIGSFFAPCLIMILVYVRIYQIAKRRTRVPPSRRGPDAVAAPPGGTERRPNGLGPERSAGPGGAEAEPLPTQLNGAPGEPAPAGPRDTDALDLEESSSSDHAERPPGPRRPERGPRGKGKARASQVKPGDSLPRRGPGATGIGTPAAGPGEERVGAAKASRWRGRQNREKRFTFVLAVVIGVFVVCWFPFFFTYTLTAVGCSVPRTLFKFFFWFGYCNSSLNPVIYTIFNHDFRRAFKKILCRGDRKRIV

[36] = target: Calcium/calmodulin-dependent protein kinase kinase 2 (Homo sapiens) (UniProt Q96RR4); details: Compound concentration 1000.0 nM
[37] = target: Mitogen-activated protein kinase 11 (Homo sapiens) (UniProt Q15759); details: Compound concentration 1000.0 nM

| Structure (SMILES) | % Inhibition of Control Values (Mean n=2) [1] [%] | residual activity [2] [%] | residual activity [3] [%] | residual activity [4] [%] | residual activity [5] [%] | residual activity [6] [%] | residual activity [7] [%] | residual activity [8] [%] | residual activity [9] [%] | residual activity [10] [%] | residual activity [11] [%] | residual activity [12] [%] | residual activity [13] [%] | residual activity [14] [%] | residual activity [15] [%] | residual activity [16] [%] | residual activity [17] [%] | residual activity [18] [%] | residual activity [19] [%] | residual activity [20] [%] | other results |
| --- | --- | --- | --- | --- | --- | --- | --- | --- | --- | --- | --- | --- | --- | --- | --- | --- | --- | --- | --- | --- | --- |
| O=C(NS(=O)(=O)c1ccc(NCC2CCOCC2)c([N+](=O)[O-])c1)c1ccc(N2CCN(Cc3ccc(C(F)(F)F)cc3-c3ccc(Cl)cc3)CC2)cc1Oc1cnc2[nH]ccc2c1 [A-1210227] | 19.7 | 76 | 83 | 81 | 88 | 72 | 98 | 100 | 96 | 80 | 100 | 81 | 100 | 100 | 100 | 84 | 100 | 97 | 100 | 100 | residual activity [21]: 100%; % Inhibition of Control Specific Binding (Mean n=2) [22]: 9.3%; % Inhibition of Control Specific Binding (Mean n=2) [23]: 10.2%; residual activity [24]: 82%; residual activity [25]: 84%; % Inhibition of Control Specific Binding (Mean n=2) [26]: 4.2%; residual activity [27]: 100%; residual activity [28]: 65%; residual activity [29]: 89%; residual activity [30]: 78%; residual activity [31]: 100%; residual activity [32]: 100%; residual activity [33]: 100%; residual activity [34]: 100%; % Inhibition of Control Specific Binding (Mean n=2) [35]: -5.2%; residual activity [36]: 99%; residual activity [37]: 78% |
| CO[C@H]1CC[C@H](CNc2ccc(S(=O)(=O)NC(=O)c3ccc(N4CCN(CC5=C(c6ccc(Cl)cc6)CC(C)(C)CC5)CC4)cc3Oc3cnc4[nH]ccc4c3)cc2[N+](=O)[O-])CC1 [A-1211212] | 5.4 | 74 | 73 | 75 | 100 | 97 | 92 | 75 | 92 | 93 | 68 | 93 | 100 | 100 | 58 | 100 | 100 | 84 | 96 | 91 | residual activity [21]: 90%; % Inhibition of Control Specific Binding (Mean n=2) [22]: 28.5%; % Inhibition of Control Specific Binding (Mean n=2) [23]: 32%; residual activity [24]: 83%; residual activity [25]: 88%; % Inhibition of Control Specific Binding (Mean n=2) [26]: -1%; residual activity [27]: 72%; residual activity [28]: 50%; residual activity [29]: 100%; residual activity [30]: 100%; residual activity [31]: 88%; residual activity [32]: 91%; residual activity [33]: 71%; residual activity [34]: 91%; % Inhibition of Control Specific Binding (Mean n=2) [35]: -11.2%; residual activity [36]: 81%; residual activity [37]: 60% |
